The record followed here is patent US7498046B2, “Composition for inducing immune response comprising inverted microsomes” (Queen Mary & Westfield College, priority 2003, dated 2009).

Assay [1] concerns B3Z T cell hybridoma. The experiment in a line: Activation of B3Z T cell hybridoma (LacZ activity, IL-2 ELISA). It counts as cell-based. As to conditions: soluble peptide. As to the method:
Microsomes from 2×10^5 RAW309Cr.1 cells were used to load OVA or Ld-specific peptide as described in Material and Methods. 2×10^5 RAW309Cr.1 cells were pulsed with OVA peptide (see Material and Methods). After washing, peptide-pulsed 2×10^5 RAW309Cr.1 cells, OVA-loaded microsomes, Ld-peptide loaded microsomes, and the microsomes without peptide were co-cultured with 10^5 B3Z cells for over night. A) After washing with PBS, LacZ activity in B3Z cells was assayed by total cellular lysates with the LacZ substrate ONPG. The absorbance ([…]) was read after incubation for four hours at 37° C. B3Z cells cultured with 100 nM OVA peptide and normal medium were used as positive and negative control for the B3Z stimulation. B) The supernatants of these cultures were submitted for measuring IL-2 production by ELISA. The experiment was repeated four times with similar results. Error bars indicate the SEM of triplicate cultures. […]
The prepared stimuli including peptide-edited microsomes, peptide-pulsed RAW309Cr.1 cells, OVA peptide, were added to culture of 10^5 B3Z cells in a total of 200 μl. […] The linear range of OVA-response was determined by the addition of serial dilutions of SIINFEKL to the medium due to that the B3Z cells themselves express Kb and present SIINFEKL.
(In an ELISA, binding on a coated surface is turned into a signal by an enzyme label.)

In assay [2] the target is T1, H2-Kb molecules (Mus musculus, UniProt P01901).
T1 construct: incubated with microsomes of RAW309Cr.1 and living RAW309Cr.1 cells under UV irradiation; endogenous in cells; host or cells: RAW309Cr.1 murine macrophage cell line (purified ER microsomes, or living cells)
T1 sequence (P01901 22-369): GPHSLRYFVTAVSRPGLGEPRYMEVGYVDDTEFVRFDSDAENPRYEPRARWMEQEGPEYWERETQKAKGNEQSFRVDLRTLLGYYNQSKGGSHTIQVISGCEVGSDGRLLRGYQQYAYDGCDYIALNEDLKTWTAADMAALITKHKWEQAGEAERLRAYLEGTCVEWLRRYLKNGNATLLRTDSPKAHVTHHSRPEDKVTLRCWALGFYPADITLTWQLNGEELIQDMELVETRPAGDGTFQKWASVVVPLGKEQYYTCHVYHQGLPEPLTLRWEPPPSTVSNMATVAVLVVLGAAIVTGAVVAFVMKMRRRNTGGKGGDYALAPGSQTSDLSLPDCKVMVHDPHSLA
T1 sequence (P01887 21-119 partner): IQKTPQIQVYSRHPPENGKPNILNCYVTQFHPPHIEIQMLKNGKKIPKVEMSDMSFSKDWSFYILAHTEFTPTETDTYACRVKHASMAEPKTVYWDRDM
The experiment in a line: Photo-crosslinking peptide binding assay of 125I-labelled ANB-NOS-OVA peptide to H2-Kb in microsomes or on the surface of RAW309Cr.1 cells. Set-up: species or system murine. The following applies: competitor at the concentration of report peptides. As to the method: Peptide OVA 257-264 (SIINFEKL) was modified by substitution of third residue isoleucine to tyrosine in order for iodination and by covalently coupling a phenylazide with a nitro group on the ε-amino group of lysine at position seven. This nitro group can be photoactivated. The crosslinker modification was performed by mixing 0.5 mg of ANB-NOS (N-5-azido-2-nitrobenzoyloxysuccinimide) in 200 μl DMSO with 100 μg peptide in 100 μl PBS and 50 μl CPAS (3-[cyclohexylamino]-1-propanesulfonic acid) (0.5 M, pH 10). The reaction was allowed to proceed for 30 min on ice. To remove the excess ANB-NOS and ions, the mixture was purified by gel filtration on Sephadex G-10 and subsequently by HPLC. […]
To detect the peptide-receptive MHC class I molecules in the microsomal membranes, a crosslinker (ANB-NOS) was conjugated to the ε-amino group of the lysine residue of an H2-Kb-binding ovalbumin (OVA) peptide (residues 257-264, SIINFEKL) and substituted the isoleucine at position 3 with tyrosine to allow for iodination. […] For a quantitative comparison of peptide-receptive H2-Kb in microsomes and on cell surface of living RAW309Cr.1, the modified OVA peptide was labelled by ^125I and incubated with microsomes of RAW309Cr.1 and living RAW309Cr.1 cells under UV irradiation. Peptide-bound H2-Kb molecules were subsequently analysed by immunoprecipitation with an anti-H2 antibody Y3.

Assay [3] concerns T cells isolated from spleens. The experiment in a line: In vivo immunisation of C57BL/6 mice, spleen T cells cross-stimulated in vitro (proliferation, IL-2). As to conditions: C57BL/6, injected twice subcutaneously, one week interval, T cells six days after second injection. From the text: C57BL/6 (H-2b) mice were primed […]. by OVA-edited microsomes or Ld-peptide loaded microsomes or OVA peptide or OVA-pulsed RAW309Cr.1 cells and challenged by same stimulus after seven days. Six days after the challenge, enriched T cells were isolated from spleens and cultured at 10^5 cells/well with stimulus indicated. The RAW309Cr.1 cells were irradiated before co-culture with T cells. After three days, supernatants were harvested for cytokine ELISA (b) and cultures pulsed with [^3H]thymidine (a). The results are representative of groups of at least three mice per treatment group and the experiment was repeated four times with similar results. Error bars indicate the SEM of triplicate cultures. Similar set of experiments performed in Balb/c (H-2d) mice served as negative control.
To further examine the ability of OVA-edited microsomes to induce immune responses in vivo, OVA-edited microsomes from RAW309Cr.1 cells, microsomes loaded with Ld-specific peptide, soluble OVA peptides, RAW309Cr.1 pulsed with OVA peptides and PBS were used to induce immune response in vivo. Five groups of C57BL/6 or Balb/c mice, each group consisting of five mice, were injected twice subcutaneously with above stimuli, respectively. The interval between injections was one week. […]

With SIINFEKL [OVA peptide], the “IL-2 production by B3Z cells” value in assay [1] is recorded as “could induce IL-2 production”. Also, in assay [2], the “Competition of the labelled report OVA peptide binding to Kb” value is given as 50%. In assay [3], the “Induction of T cell responses by the immunising stimulus (proliferation of spleen T cells)” value was “responded to OVA-edited microsomes in vitro”.
